Assay results reported in PubChem BioAssay (NCI).
Where “and” joins values, the source holds several entries; their conditions need not be identical. Equal entries are not always repeated.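 Exposure lasted 48 hours, with cells grown in 96-well plates and compounds tested at five concentrations. GI50 is the concentration that inhibits growth by half. TGI: concentration producing complete growth inhibition.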

Experiments:
Assay in all cases: NCI-60 cell line screen, 48 h
OVCAR-5 ovarian = test system: OVCAR-5 ovarian
HL-60(TB) leukemia = test system: HL-60(TB) leukemia
LOX IMVI melanoma = test system: LOX IMVI melanoma
HCT-116 colon = test system: HCT-116 colon
SF-295 CNS = test system: SF-295 CNS
OVCAR-4 ovarian = test system: OVCAR-4 ovarian
MALME-3M melanoma = test system: MALME-3M melanoma
UACC-257 melanoma = test system: UACC-257 melanoma
SK-MEL-2 melanoma = test system: SK-MEL-2 melanoma
SNB-19 CNS = test system: SNB-19 CNS
IGROV1 ovarian = test system: IGROV1 ovarian
HCT-15 colon = test system: HCT-15 colon

SMILES | TGI (OVCAR-5 ovarian) | TGI (HL-60(TB) leukemia) | TGI (LOX IMVI melanoma) | TGI (HCT-116 colon) | TGI (SF-295 CNS) | TGI (OVCAR-4 ovarian) | TGI (MALME-3M melanoma) | TGI (UACC-257 melanoma) | TGI (SK-MEL-2 melanoma) | TGI (SNB-19 CNS) | TGI (IGROV1 ovarian) | TGI (HCT-15 colon) | GI50 (HL-60(TB) leukemia) | GI50 (HCT-116 colon) | GI50 (MALME-3M melanoma) | GI50 (UACC-257 melanoma) | GI50 (SK-MEL-2 melanoma) | GI50 (IGROV1 ovarian)
O=c1oc2cccnc2n1CCN1CCN(c2ccc(Oc3ccccc3)cc2)CC1 | > 100 µM | 86.4 µM | > 100 µM | > 100 µM | > 100 µM | 75.4 µM | > 100 µM | > 100 µM | > 100 µM | > 100 µM | > 100 µM | > 100 µM | – | – | – | – | – | –
BrCCC[P+](c1ccccc1)(c1ccccc1)c1ccccc1 | > 100 µM | 6.49 µM | 16.8 µM | 2.99 µM | > 100 µM | > 100 µM | > 100 µM | 48.3 µM | 82.2 µM | > 100 µM | > 66.9 µM | > 100 µM | – | – | – | – | – | –
CC(=O)[O-].[Ni].c1ccc(/C(=N\Nc2ccccn2)c2ccccn2)cc1 | 47.3 µM | 0.61 µM | 22.3 µM | 18 µM | 26.8 µM | > 59.7 µM | 20.9 µM | 23.2 µM | 24.9 µM | 54 µM | 29.7 µM | 41.1 µM | – | – | – | – | – | –
COc1cc(C2c3[nH]c4ccc(F)cc4c3C[C@H]3COC(=O)N23)cc(OC)c1O (stereo partly specified) | 49.2 µM | 38.1 µM | 31.3 µM | 25.5 µM | 53.8 µM | 79.7 µM | 55.7 µM | > 100 µM | 60.3 µM | > 100 µM | > 100 µM | 25.2 µM | – | – | – | – | – | –
c1nc(SSc2ncnc3nc[nH]c23)c2[nH]cnc2n1 | > 65.2 µM | > 100 µM | 20.4 µM | > 100 µM | 43.7 µM | > 100 µM | 18.5 µM | > 100 µM | > 100 µM | > 100 µM | > 100 µM | > 100 µM | – | – | – | – | – | –
O=c1[nH]cc(N(CCCl)CCCl)c(=O)[nH]1 | 186 µM | 36.9 µM | 165 µM | 179 µM | 246 µM | 199 µM | 106 µM | 159 µM | 204 µM | 400 µM | 266 µM | 251 µM | – | – | – | – | – | –
O=C1C=CC[C@H](/C=C/C[C@@H](O)C[C@H](O)/C=C/c2ccccc2)O1 | 29.5 µM | 17.7 µM | 13.3 µM | 17.4 µM | 29.8 µM | 28.4 µM | 28.6 µM | 26.9 µM | 26.3 µM | 34.1 µM | 28 µM | 23 µM | – | – | – | – | – | –
COc1cc(/C=C/c2sc3ccccc3[n+]2C)ccc1N(C)C | 40.5 µM | 3.88 µM | 31.9 µM | 17.9 µM | > 100 µM | 40.1 µM | 19.8 µM | 22.9 µM | 8.31 µM and 29.3 µM | 26.8 µM | 22 µM | > 100 µM | 1.75 µM | 6.05 µM | 5.85 µM | 8.32 µM | 12.4 µM | 9.14 µM
COCC(=O)OC1CCn2c1nc1c2C(=O)C(C)=C(NC(C)=O)C1=N (stereo unspecified) | 25.3 µM | 4.54 µM | 6.04 µM | 11.4 µM | 30.4 µM | 4.89 µM | 2.7 µM | 8.23 µM | 6.09 µM | 38.1 µM | 24.2 µM | 27.5 µM | – | – | – | – | – | –
NC(CCCCN=Cc1nc(-c2ccccc2)oc1O)C(=O)O (stereo unspecified) | > 100 µM | > 100 µM | > 100 µM | > 100 µM | > 100 µM | > 100 µM | > 100 µM | > 100 µM | > 100 µM | > 100 µM | > 100 µM | > 100 µM | – | – | – | – | – | –
COc1cc2c(oc(=O)c3cc4ccoc4c(OC)c32)c2cccc(O)c12 | > 100 µM | > 100 µM | > 100 µM | > 100 µM | > 100 µM | > 100 µM | > 100 µM | > 100 µM | > 100 µM | > 100 µM | > 100 µM | > 100 µM | – | – | – | – | – | –
Clc1ccc2c(c1)CC1C[N+]3=C(CCCC3)C1=C2 (stereo unspecified) | > 100 µM | > 100 µM | > 100 µM | > 100 µM | > 100 µM | > 100 µM | > 100 µM | > 100 µM | > 100 µM | > 100 µM | > 100 µM | > 100 µM | – | – | – | – | – | –
O=C(O)c1cncc(C(=O)O)c1 | > 100 µM | > 100 µM | > 100 µM | > 100 µM | > 100 µM | > 100 µM | > 100 µM | > 100 µM | > 100 µM | > 100 µM | > 100 µM | > 100 µM | – | – | – | – | – | –
O=c1c[n+](-c2ccccc2)[nH]o1 | > 100 µM | > 100 µM | > 100 µM | > 100 µM | > 100 µM | > 100 µM | > 100 µM | > 100 µM | > 100 µM | > 100 µM | > 100 µM | > 100 µM | – | – | – | – | – | –
CC(=O)N1CC[N+](C)(CCCCN2c3ccccc3Sc3cc(N=[N+]=[N-])ccc32)CC1 | > 100 µM | > 100 µM | > 100 µM | > 100 µM | > 100 µM | > 100 µM | > 100 µM | > 100 µM | > 100 µM | > 100 µM | > 100 µM | > 100 µM | – | – | – | – | – | –
NC1=NN(c2ccccc2)C2(c3ccncc3C(=O)O)C1C(N)=NN2c1ccccc1 (stereo unspecified) | > 100 µM | > 100 µM | > 100 µM | > 100 µM | > 100 µM | > 100 µM | > 100 µM | > 100 µM | > 100 µM | > 100 µM | > 100 µM | > 100 µM | – | – | – | – | – | –
COc1ccc(C(=O)Cn2c(C(C)=O)nc3ccccc32)cc1 | > 100 µM | > 43.8 µM | > 46.4 µM | > 100 µM | 80.6 µM | > 100 µM | > 100 µM | > 100 µM | > 100 µM | > 100 µM | > 100 µM | > 100 µM | – | – | – | – | – | –
CC1(C)CCCCCC(C)(CCCCCCCCCCCO)C1=O (stereo unspecified) | 31.2 µM | 31.8 µM | 28.7 µM | 28.8 µM | 29.6 µM | 28.8 µM | 29.8 µM | 27 µM | 30.4 µM | 31.2 µM | 32.6 µM | 29.7 µM | – | – | – | – | – | –
COc1ccc(-c2oc3cc(OC)c(OC)c(OC)c3c(=O)c2OC)cc1OC | > 100 µM | 83.4 µM | > 100 µM | > 100 µM | > 100 µM | > 100 µM | > 100 µM | > 100 µM | > 100 µM | > 100 µM | > 100 µM | > 100 µM | – | – | – | – | – | –
CN(C)CCCNC(=O)c1cc(NC(=O)c2cc(NC(=O)[C@H]3C[C@@H]3C(=O)Nc3cc(C(=O)Nc4cc(C(=O)NCCCN(C)C)n(C)c4)n(C)c3)cn2C)cn1C | > 100 µM | > 100 µM | > 100 µM | > 100 µM | > 100 µM | > 100 µM | > 100 µM | > 100 µM | > 100 µM | > 100 µM | > 100 µM | > 100 µM | – | – | – | – | – | –
O=NNc1cnccn1 | > 1250 µM | > 852 µM | > 1250 µM | > 1250 µM | > 1250 µM | > 1250 µM | > 1250 µM | > 1250 µM | > 1250 µM | > 1250 µM | > 1250 µM | > 1250 µM | – | – | – | – | – | –
CC(=O)OCC1OC(n2c3c(cc(C#N)c2=S)CCCCCC3)C(OC(C)=O)C(OC(C)=O)C1OC(C)=O (stereo unspecified) | > 100 µM | > 100 µM | 49.8 µM | > 100 µM | > 100 µM | > 100 µM | > 100 µM | > 100 µM | > 100 µM | > 100 µM | > 100 µM | > 100 µM | – | – | – | – | – | –
COP(=O)(OC)C(O)/C=C(\Cl)c1ccc(Cl)cc1 (stereo unspecified) | > 100 µM | > 100 µM | 52.1 µM | 36.2 µM | > 100 µM | > 100 µM | > 100 µM | 84.6 µM | > 100 µM | > 100 µM | > 100 µM | > 100 µM | – | – | – | – | – | –
Cc1nn(-c2ccccc2)c2c1C(c1cc3ccccc3nc1Cl)NC(=S)N2 (stereo unspecified) | > 100 µM | > 100 µM | 56.6 µM | > 100 µM | > 100 µM | > 100 µM | > 100 µM | > 100 µM | 44.8 µM | > 100 µM | 37.6 µM | > 100 µM | – | – | – | – | – | –
O=C(O)C(Cc1cnc[nH]1)N=Cc1nc(-c2ccccc2)oc1O (stereo unspecified) | > 100 µM | > 100 µM | > 100 µM | > 100 µM | > 100 µM | > 100 µM | > 100 µM | > 100 µM | > 100 µM | > 100 µM | > 100 µM | > 100 µM | – | – | – | – | – | –
COc1ccc2c[n+](C)c3c4cc(OC)c(OC)cc4ccc3c2c1 | 34.4 µM | 32.4 µM | 17.2 µM | 16.8 µM | 34.8 µM | 26.4 µM | 42 µM | 57.6 µM | 27.7 µM | 12 µM | 22.1 µM | > 70.4 µM | – | – | – | – | – | –
CCN(CC)c1nc(N(C)C)c2ccc(OC)cc2n1 | > 100 µM | 17.2 µM | 42.3 µM | 20.1 µM | > 100 µM | > 100 µM | 55.1 µM | 28.1 µM | 36.5 µM | 70 µM | > 100 µM | > 100 µM | – | – | – | – | – | –
c1ccc(/N=N\Nc2ccc(-c3nc4ccccc4o3)cc2)nc1 | > 100 µM | > 100 µM | > 100 µM | > 100 µM | – | > 100 µM | > 100 µM | 83 µM | > 100 µM | > 100 µM | > 100 µM | > 100 µM | – | – | – | – | – | –
